Experimental data reported in paper PMC6572003 (The Journal of General Physiology, 2019).
Residue numbers refer to the chain shown, from its start. Values belong to the molecule of their own block, whether it stands above or below them.

Tests used:
Experiment in all cases: two-electrode voltage clamp, Xenopus oocytes, current integral
Format in all cases: cell-based
human P2X4 [1] = molecular target: T1, human P2X4 (Homo sapiens, UniProt Q99571); details: read-out: % inhibition at 250 μM
T1 sequence (Q99571 1-388): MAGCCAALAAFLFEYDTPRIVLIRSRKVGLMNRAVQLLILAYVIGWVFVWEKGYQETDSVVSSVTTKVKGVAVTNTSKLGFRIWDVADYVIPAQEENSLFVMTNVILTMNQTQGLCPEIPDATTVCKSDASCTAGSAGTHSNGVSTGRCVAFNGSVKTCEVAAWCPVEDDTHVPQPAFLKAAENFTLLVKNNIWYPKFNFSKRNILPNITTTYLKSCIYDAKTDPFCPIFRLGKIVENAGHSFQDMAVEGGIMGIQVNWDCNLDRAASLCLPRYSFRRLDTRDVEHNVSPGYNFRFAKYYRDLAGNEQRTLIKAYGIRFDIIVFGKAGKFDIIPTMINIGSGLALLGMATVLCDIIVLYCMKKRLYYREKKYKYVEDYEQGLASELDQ

human P2X4 [2] = molecular target: T1, human P2X4
human P2X4 [3] = molecular target: T2, human P2X4 (Homo sapiens, UniProt Q99571, W50A); details: read-out: % inhibition at 250 μM
T2 sequence (Q99571 1-388 W50A): T1 sequence (Q99571 1-388) with W50A

human P2X4 [4] = molecular target: T3, human P2X4 (Homo sapiens, UniProt Q99571, D331A); details: read-out: % inhibition at 250 μM
T3 sequence (Q99571 1-388 D331A): T1 sequence (Q99571 1-388) with D331A

human P2X4 [5] = molecular target: T1, human P2X4; remark: listed apart in the source
human P2X4 [6] = molecular target: T4, human P2X4 (Homo sapiens, UniProt Q99571, M336A); details: read-out: % inhibition at 250 μM
T4 sequence (Q99571 1-388 M336A): T1 sequence (Q99571 1-388) with M336A

human P2X4 [7] = molecular target: T5, human P2X4 (Homo sapiens, UniProt Q99571, E51A); details: read-out: % inhibition at 250 μM
T5 sequence (Q99571 1-388 E51A): T1 sequence (Q99571 1-388) with E51A

inhibition at 250 µM (human P2X4 [1]): 25 ± 9%
SMILES: C[C@H](CCC(=O)NCCS(=O)(=O)O)[C@H]1CC[C@H]2[C@@H]3[C@H](O)C[C@@H]4C[C@H](O)CC[C@]4(C)[C@H]3CC[C@]12C [t-CDCA, tauro-chenodeoxycholic acid]

EC50 (human P2X4 [2]): 4.8 ± 1.2 µM
SMILES: Nc1ncnc2c1ncn2[C@@H]1O[C@H](COP(=O)(O)OP(=O)(O)OP(=O)(O)O)[C@@H](O)[C@H]1O [ATP]

inhibition at 250 µM (human P2X4 [1]): 73 ± 2%
SMILES: C[C@H](CCC(=O)O)[C@H]1CC[C@H]2[C@@H]3CC[C@@H]4C[C@H](O)CC[C@]4(C)[C@H]3C[C@H](O)[C@]12C [DCA, deoxycholic acid]

inhibition at 250 µM (human P2X4 [3]): 63%
inhibition at 250 µM (human P2X4 [4]): 38%
IC50 (human P2X4 [5]): ~160 µM
inhibition at 250 µM (human P2X4 [6]): 22%
inhibition at 250 µM (human P2X4 [7]): 74%
SMILES: C[C@H](CCC(=O)NCCS(=O)(=O)O)[C@H]1CC[C@H]2[C@@H]3CC[C@@H]4C[C@H](O)CC[C@]4(C)[C@H]3C[C@H](O)[C@]12C [t-DCA, tauro-deoxycholic acid]
